From US12178838B2, “Synthetic neuromodulatory peptides” (Lactocore, Inc., priority 2019, dated 2024)

Test system: Wistar rats after chronic unpredictable mild stress
Test: CUMS model: Social Interaction test
Assay type: in vivo
Settings: FQSE 0.5 mg/kg i.n.; diazepam 0.5 mg/kg i.p.; 4 injections; vs control non-stressed rats
Experimental: During stress, the animals were placed in individual cells and exposed to stressful conditions each day for 26 days. Two stressors were used daily, applied in the following order: • Day 1. 10 am-6 pm, rats were placed in a cold room for an hour. From 6 PM to 10 am the lights were turned on and off every 2 hours. • Day 2. 10 am-6 pm, cage tilted to 45°. From 6 PM to 10 am water deprivation. • Day 3. 10 am-6 pm, stroboscopic light. From 6 PM to 10 am the light was left on overnight. • Day 4. 10 am-6 pm, wet bedding. From 6 PM to 10 am the animals were put in a small mouse cage. • Day 5. 10 am-6 pm, no bedding. From 6 PM to 10 am the lights were turned on and off every 2 hours. • Day 6. 10 am-6 pm, a new rat was placed in the cage (6-month-old). From 6 PM to 10 am the light was left on overnight. • Day 7. 10 am-6 pm, white noise. From 6 PM to 10 am a stroboscopic light was turned on at night. • Day 8-26. Repetition of previously used stressors in the specified sequence.
Experimental substances were administered daily starting from the 58-59 day of the experiment. […]
To assess the social activity and depressive state of the animals, a test that evaluates a social interaction of rodents was used. […] Within 10 minutes the duration and number of social contacts with the juvenile male and number of threatening and aggressive contacts were recorded. […]

Structure (SMILES): CN1C(=O)CN=C(c2ccccc2)c2cc(Cl)ccc21 [Diazepam]
- duration of social contacts: significant decrease
